Assay results taken from patent US10961279B2 (priority 2011, dated 2021).

Tested on: CTLL-2 cells
Format: cell-based

Sequence	effect of the dimeric peptides on proliferation of CTLL-2 cells (synthesis of new DNA)
GLFAGFIENGWEGCGGEKEKEK [non-IS #2]	no significant effect
GLFGAAGFIENGWEGCGGEKEKEK [non-IS #1]	much less
